According to US20160264568A1, “SUBSTITUTED TRIAZOLOPYRIDINES HAVING ACTIVITY AS MPS-1 INHIBITORS” (BAYER PHARMA AKTIENGESELLSCHAFT, priority 2013, published 2016):
Where two headings read alike, the source gives them in different places.

Assays:
[1] = Metabolic stability in vitro, dog liver microsomes; assay type: in vitro ADME; settings: maximal oral bioavailability calculated from microsomal half-life, 1 μM compound
Experimental: (§1) The metabolic stability of test compounds in vitro was determined by incubating them at 1 μM with a suspension of liver microsomes in 100 mM phosphate buffer, pH7.4 (NaH2PO4xH2O+Na2HPO4x2H2O) at a protein concentration of 0.5 mg/mL and at 37° C. The reaction was activated by adding a co-factor mix containing 1.2 mg NADP, 3 IU glucose-6-phosphate dehydrogenase, 14.6 mg glucose-6-phosphate and 4.9 mg MgCl2 in phosphate buffer, pH 7.4. Organic solvent in the incubations was limited to <0.2% dimethylsulfoxide (DMSO) and <1% methanol. During incubation, the microsomal suspensions were continuously shaken and aliquots were taken at 2, 8, 16, 30, 45 and 60 min, to which equal volumes of cold methanol were immediately added. Samples were frozen at −20° C. over night, subsequently centrifuged for 15 minutes at 3000 rpm and the supernatant was analyzed with an Agilent 1200 HPLC-system with LCMS/MS detection.
(§2) The half-life of a test compound was determined from the concentration-time plot. From the half-life the intrinsic clearances were calculated. Together with the additional parameters liver blood flow, specific liver weight and microsomal protein content the hepatic in vivo blood clearance (CL) and the maximal oral bioavailability (Fmax) were calculated for the different species. […]

[2] = Metabolic stability in vitro, human liver microsomes; assay type: in vitro ADME; settings: maximal oral bioavailability calculated from microsomal half-life, 1 μM compound
Experimental: as §1, §2

[3] = Metabolic stability in vitro, rat liver microsomes; assay type: in vitro ADME; settings: maximal oral bioavailability calculated from microsomal half-life, 1 μM compound
Experimental: as §1, §2

[4] = system: HeLa human cervical tumor cells; test: HeLa cell proliferation assay (crystal violet); assay type: cell-based; settings: 96 h, 4 days incubation, crystal violet staining, read-out: Inhibition of cell proliferation, cell Line: HeLa IC50
Experimental: Cultivated tumor cells (MCF7, hormone dependent human mammary carcinoma cells, ATCC HTB22; NCI-H460, human non-small cell lung carcinoma cells, ATCC HTB-177; DU 145, hormone-independent human prostate carcinoma cells, ATCC HTB-81; HeLa-MaTu, human cervical carcinoma cells, EPO-GmbH, Berlin; HeLa-MaTu-ADR, multidrug-resistant human cervical carcinoma cells, EPO-GmbH, Berlin; HeLa human cervical tumor cells, ATCC CCL-2; B16F10 mouse melanoma cells, ATCC CRL-6475) were plated at a density of 5000 cells/well (MCF7, DU145, HeLa-MaTu-ADR), 3000 cells/well (NCI-H460, HeLa-MaTu, HeLa), or 1000 cells/well (B16F10) in a 96-well multititer plate in 200 μl of their respective growth medium supplemented 10% fetal calf serum. […] Cell proliferation was determined by staining the cells with crystal violet: the cells were fixed by adding 20 μl/measuring point of an 11% glutaric aldehyde solution for 15 minutes at room temperature. […] The extinction of the stained cells was determined by photometry at a wavelength of 595 nm. The change of cell number, in percent, was calculated by normalization of the measured values to the extinction values of the zero-point plate (=0%) and the extinction of the untreated (0 μm) cells (=100%). The […] values were determined by means of a 4 parameter fit using the company's own software. […]

[5] = target: T1, human kinase Mps-1 (Homo sapiens, UniProt P33981); test: Mps-1 kinase assay (TR-FRET); assay type: biochemical
T1 construct: N-terminally GST-tagged human full length recombinant Mps-1 kinase; GST (N); purchased Invitrogen, Karslruhe, Germany PV4071
T1 sequence (P33981 1-857): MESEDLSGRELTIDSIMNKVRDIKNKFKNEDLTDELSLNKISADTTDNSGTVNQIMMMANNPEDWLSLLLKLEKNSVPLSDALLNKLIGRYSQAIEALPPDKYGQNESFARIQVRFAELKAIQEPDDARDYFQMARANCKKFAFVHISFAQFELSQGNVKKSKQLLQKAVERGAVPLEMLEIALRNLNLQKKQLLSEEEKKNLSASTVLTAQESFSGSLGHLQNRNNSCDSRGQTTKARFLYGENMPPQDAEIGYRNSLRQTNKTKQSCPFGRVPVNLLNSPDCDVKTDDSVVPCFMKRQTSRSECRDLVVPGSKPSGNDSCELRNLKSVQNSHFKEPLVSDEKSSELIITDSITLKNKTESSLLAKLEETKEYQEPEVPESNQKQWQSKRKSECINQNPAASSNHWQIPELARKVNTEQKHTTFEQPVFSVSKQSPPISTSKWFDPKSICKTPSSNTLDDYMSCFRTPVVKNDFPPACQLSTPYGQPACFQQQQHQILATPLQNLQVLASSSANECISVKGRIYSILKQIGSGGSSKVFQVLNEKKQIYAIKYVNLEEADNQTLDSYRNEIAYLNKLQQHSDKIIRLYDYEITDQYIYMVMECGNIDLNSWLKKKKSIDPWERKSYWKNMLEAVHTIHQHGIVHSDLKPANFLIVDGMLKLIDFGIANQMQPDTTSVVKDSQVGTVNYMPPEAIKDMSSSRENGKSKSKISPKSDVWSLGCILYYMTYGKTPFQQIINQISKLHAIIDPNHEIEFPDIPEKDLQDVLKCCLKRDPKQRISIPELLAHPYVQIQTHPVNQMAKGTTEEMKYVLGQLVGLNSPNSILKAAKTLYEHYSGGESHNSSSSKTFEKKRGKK
Experimental: The human kinase Mps-1 phosphorylates a biotinylated substrate peptide. Detection of the phosphorylated product is achieved by time-resolved fluorescence resonance energy transfer (TR-FRET) from Europium-labelled anti-phospho-Serine/Threonine antibody as donor to streptavidin labelled with cross-linked allophycocyanin (SA-XLent) as acceptor. Compounds are tested for their inhibition of the kinase activity.
N-terminally GST-tagged human full length recombinant Mps-1 kinase (purchased from Invitrogen, Karslruhe, Germany, cat. no PV4071) was used. […]
The resulting mixture was incubated 1 h at 22° C. to allow the binding of the phosphorylated peptide to the anti-phospho(Ser/Thr)-Europium-antibody. Subsequently the amount of phosphorylated substrate was evaluated by measurement of the resonance energy transfer from the Europium-labelled anti-phospho(Ser/Thr) antibody to the Streptavidin-XLent. Therefore, the fluorescence emissions at 620 nm and 665 nm after excitation at 350 nm was measured in a Viewlux TR-FRET reader (PerkinElmer LAS, Rodgau-Jugesheinn, Germany). The “blank-corrected normalized ratio” (a Viewlux specific readout, similar to the traditional ratio of the emissions at 665 nm and at 622 nm, in which blank and Eu-donor crosstalk are subtracted from the 665 nm signal before the ratio is calculated) was taken as the measure for the amount of phosphorylated substrate. […]

Dog liver microsomes; Fmax [%] [1]: 65%
Human liver microsomes; Fmax [%] [2]: 83%
Rat liver microsomes; Fmax [%] [3]: 96%
IC50 [4]: < 400 nM
IC50 ([5]; 10 μM ATP, read-out: Mps-1 Inhibition, IC50 (Assay with 10 μM ATP)): < 1 nM
IC50 ([5]; 2 mM ATP, read-out: Mps-1 Inhibition, IC50 (Assay with 2 mM ATP)): 1.6 nM
Structure (SMILES): COc1cc2c(cc1Nc1nc3ccc(-c4ccc(NC(=O)[C@H](C)c5ccc(F)cc5)cc4)cn3n1)CCS2(=O)=O [Example01.01, (2R)-2-(4-fluorophenyl)-N-(4-{2-[(6-methoxy-1,1-dioxido-2,3-dihydro-1-benzothiophen-5-yl)amino][1,2,4]triazolo[1,5-a]pyridin-6-yl}phenyl)propanamide]
